Values of other authors in patent publication US20140187513A1, “METHOD OF IMPROVING SKILLS WITH A COMPOSITION COMPRISING NON-DIGESTIBLE SACCHARIDE” (priority 2007, published 2014).

Settings: oral, autistic children, pilot study

Compound: CN[C@H](CC(C)C)C(=O)N[C@H]1C(=O)N[C@@H](CC(N)=O)C(=O)N[C@H]2C(=O)N[C@H]3C(=O)N[C@H](C(=O)N[C@H](C(=O)O)c4cc(O)cc(O)c4-c4cc3ccc4O)[C@H](O)c3ccc(c(Cl)c3)Oc3cc2cc(c3O[C@@H]2O[C@H](CO)[C@@H](O)[C@H](O)[C@H]2O[C@H]2C[C@](C)(N)[C@H](O)[C@H](C)O2)Oc2ccc(cc2Cl)[C@H]1O [vancomycin]
- cognitive effect following vancomycin treatment: significant cognitive improvement
